From ChEMBL document CHEMBL1152341, “Polyacetylenes from sardinian Oenanthe fistulosa: a molecular clue to risus sardonicus” (J Nat Prod, 2009) come the findings set out here.

The nature of assay [1]: (§1) Antagonist activity at GABAA receptor in Wistar rat neuronal cells assessed inhibition of GABA-evoked response by patch-clamp technique. The class given is functional, cell-based. On the technique in general: In patch-clamp work, channel activity is measured electrically.
The next assay concerns neuronal. Described as §1. The format is functional, cell-based.

As a reminder, the EC50 is the concentration giving half of the maximal effect. As to `CCC[C@@H](O)CC/C=C/C=C/C#CC#CCCCO` [DIHYDROOENANTHOTOXIN], the EC50 in assay [1] was found to be 0.835 µM.

Molecule `CCC[C@@H](O)CC/C=C/C=C/C#CC#C/C=C/CO` [OENANTHOTOXIN] yielded an EC50 in assay [1] of 1.39 µM. In addition, in the assay with neuronal, the Activity result is “Dose-dependent effect”.
